Measurements taken from patent US20220048876A1, “INSECTICIDAL COMPOUNDS” (SYNGENTA PARTICIPATIONS AG, priority 2018, published 2022).
Like-named read-outs stand apart in the source and are kept apart here.

Experiments:
Assay type in all cases: in vivo
Myzus persicae = Myzus persicae (green peach aphid), intrinsic activity; details: 120 h
Description: Myzus persicae (Green Peach Aphid). Intrinsic Activity
Test compounds prepared from 10′000 ppm DMSO stock solutions were applied by pipette into 24-well microtiter plates and mixed with sucrose solution. The plates were closed with a stretched Parafilm. A plastic stencil with 24 holes was placed onto the plate and infested pea seedlings were placed directly on the Parafilm. The infested plate was closed with a gel blotting paper and another plastic stencil and then turned upside down. The samples were assessed for mortality 5 days after infestation.

Euschistus heros = Euschistus heros (neotropical brown stink bug), sprayed soybean leaves; details: 120 h, read-out: effect in at least one of the two categories (mortality or growth inhibition); for percent effect (mortality or growth inhibition) at 200 ppm: application rate 200 ppm, N2 nymphs, 5 days after infestation
Description: Euschistus heros(Neotropical Brown Stink Bug)
Soybean leaves on agar in 24-well microtiter plates were sprayed with aqueous test solutions prepared from 10′000 ppm DMSO stock solutions. After drying the leaves were infested with N2 nymphs. The samples were assessed for mortality and growth inhibition in comparison to untreated samples 5 days after infestation.

Tetranychus urticae = Tetranychus urticae (two-spotted spider mite), feeding/contact activity; details: 192 h
Description: Tetranychus urticae (Two-Spotted Spider Mite):Feeding/Contact Activity
Bean leaf discs on agar in 24-well microtiter plates were sprayed with aqueous test solutions prepared from 10′000 ppm DMSO stock solutions. After drying the leaf discs were infested with a mite population of mixed ages. The samples were assessed for mortality on mixed population (mobile stages) 8 days after infestation.

Plutella xylostella = Plutella xylostella (diamond back moth), artificial diet; details: 120 h, read-out: effect in at least one of the two categories (mortality or growth inhibition); for percent effect (mortality or growth inhibition) at 200 ppm: application rate 200 ppm, L2 larvae, 5 days after infestation
Description: Plutella xylostella (Diamond Back Moth)
24-well microtiter plates with artificial diet were treated with aqueous test solutions prepared from 10′000 ppm DMSO stock solutions by pipetting. After drying, the plates were infested with L2 larvae (10 to 15 per well). The samples were assessed for mortality and growth inhibition in comparison to untreated samples 5 days after infestation.

Diabrotica balteata = Diabrotica balteata (corn root worm), sprayed maize sprouts; details: 96 h, read-out: effect in at least one of the two categories (mortality or growth inhibition); for percent effect (mortality or growth inhibition) at 200 ppm: application rate 200 ppm, L2 larvae, 4 days after infestation
Description: Diabrotica balteata (Corn Root Worm)
Maize sprouts placed onto an agar layer in 24-well microtiter plates were treated with aqueous test solutions prepared from 10′000 ppm DMSO stock solutions by spraying. After drying, the plates were infested with L2 larvae (6 to 10 per well). The samples were assessed for mortality and growth inhibition in comparison to untreated samples 4 days after infestation.

Thrips tabaci = Thrips tabaci (onion thrips), feeding/contact activity; details: 144 h
Description: Thrips tabaci (Onion Thrips) Feeding/Contact Activity
Sunflower leaf discs were placed on agar in 24-well microtiter plates and sprayed with aqueous test solutions prepared from 10′000 ppm DMSO stock solutions. After drying the leaf discs were infested with a thrips population of mixed ages. The samples were assessed for mortality 6 days after infestation.

Spodoptera littoralis = Spodoptera littoralis (Egyptian cotton leaf worm), cotton leaf discs; details: foliar, 72 h, read-out: control (mortality, anti-feedant effect or growth inhibition)
Description: Spodoptera littoralis (Egyptian Cotton Leaf Worm)
Cotton leaf discs were placed onto agar in 24-well microtiter plates and sprayed with aqueous test solutions prepared from 10′000 ppm DMSO stock solutions. After drying the leaf discs were infested with five L1 larvae. The samples were assessed for mortality, anti-feeding effect, and growth inhibition in comparison to untreated samples 3 days after infestation. Control of Spodoptera littoralis by a test sample is given when at least one of the categories mortality, anti-feedant effect, and growth inhibition is higher than the untreated sample.

[1] = test rate 12 ppm, 5 days after infestation, read-out: mortality
[2] = application rate 200 ppm, mixed population (mobile stages), 8 days after infestation, read-out: mortality
[3] = application rate 200 ppm, mixed ages, 6 days after infestation, read-out: mortality
[4] = application rate 200 ppm, L1 larvae, 3 days after infestation

Cc1cc(C2=COC(c3cc(Cl)cc(Cl)c3)(C(F)(F)F)C2)ccc1C(=O)NCC1(C#N)CC1 (centres unmarked) [Compound A2, N-[(1-cyanocyclopropyl)methyl]-4-[2-(3,5-dichlorophenyl)-2-(trifluoromethyl)-3H-furan-4-yl]-2-methyl-benzamide]
≥ 80%: mortality at 12 ppm (Myzus persicae; [1]) | percent effect (mortality or growth inhibition) at 200 ppm (Euschistus heros) | mortality at 200 ppm (Tetranychus urticae; [2]) | percent effect (mortality or growth inhibition) at 200 ppm (Plutella xylostella) | percent effect (mortality or growth inhibition) at 200 ppm (Diabrotica balteata) | mortality at 200 ppm (Thrips tabaci; [3]) | percent control (mortality, anti-feedant effect or growth inhibition) at 200 ppm (Spodoptera littoralis; [4])

Cc1cc(C2=NO[C@](c3cc(Cl)cc(Cl)c3)(C(F)(F)F)[C@H]2Cl)ccc1C(=O)NCC1(C#N)CC1 [Compound A3, 4-[(4S,5R)-4-chloro-5-(3,5-dichlorophenyl)-5-(trifluoromethyl)-4H-isoxazol-3-yl]-N-[(1-cyanocyclopropyl)methyl]-2-methyl-benzamide]
≥ 80%: mortality at 12 ppm (Myzus persicae) | percent control (mortality or growth inhibition) at 200 ppm (Euschistus heros) | mortality at 200 ppm (Tetranychus urticae) | percent control (mortality or growth inhibition) at 200 ppm (Plutella xylostella) | percent control (mortality or growth inhibition) at 200 ppm (Diabrotica balteata) | mortality at 200 ppm (Thrips tabaci) | percent control (mortality, anti-feedant effect or growth inhibition) at 200 ppm (Spodoptera littoralis)

Cc1cc(C2=NCC(c3cc(Cl)c(Cl)c(Cl)c3)(C(F)(F)F)C2)ccc1C(=O)NCC1(C#N)CC1 (centres unmarked) [Compound A5, N-[(1-cyanocyclopropyl)methyl]-2-methyl-4-[3-(3,4,5-trichlorophenyl)-3-(trifluoromethyl)-2,4-dihydropyrrol-5-yl]benzamide]
≥ 80%: mortality at 12 ppm (Myzus persicae; [1]) | percent effect (mortality or growth inhibition) at 200 ppm (Euschistus heros) | mortality at 200 ppm (Tetranychus urticae; [2]) | percent effect (mortality or growth inhibition) at 200 ppm (Plutella xylostella) | percent effect (mortality or growth inhibition) at 200 ppm (Diabrotica balteata) | mortality at 200 ppm (Thrips tabaci; [3]) | percent control (mortality, anti-feedant effect or growth inhibition) at 200 ppm (Spodoptera littoralis; [4])

Cc1cc(C2=NS[C@@](c3cc(Cl)cc(Cl)c3)(C(F)(F)F)C2)ccc1C(=O)NCC1(C#N)CC1 [Compound A1, N-[(1-cyanocyclopropyl)methy]-4-[(5S)-5-(3,5-dichlorophenyl)-5-(trifluoromethyl)-4H-isothiazol-3-yl]-2-methyl-benzamide]
≥ 80%: mortality at 12 ppm (Myzus persicae; [1]) | percent effect (mortality or growth inhibition) at 200 ppm (Euschistus heros) | mortality at 200 ppm (Tetranychus urticae; [2]) | percent effect (mortality or growth inhibition) at 200 ppm (Plutella xylostella) | percent effect (mortality or growth inhibition) at 200 ppm (Diabrotica balteata) | mortality at 200 ppm (Thrips tabaci; [3]) | percent control (mortality, anti-feedant effect or growth inhibition) at 200 ppm (Spodoptera littoralis; [4])

Cc1cc(C2=NCC(c3cc(Cl)c(F)c(Cl)c3)(C(F)(F)F)C2)ccc1C(=O)NCC1(C#N)CC1 (centres unmarked) [Compound A4, N-[(1-cyanocyclopropyl)methyl]-4-[3-(3,5-dichloro-4-fluorophenyl)-3-(trifluoromethyl)-2,4-dihydropyrrol-5-yl]-2-methyl-benzamide]
≥ 80%: mortality at 12 ppm (Myzus persicae; [1]) | percent effect (mortality or growth inhibition) at 200 ppm (Euschistus heros) | mortality at 200 ppm (Tetranychus urticae; [2]) | percent effect (mortality or growth inhibition) at 200 ppm (Plutella xylostella) | percent effect (mortality or growth inhibition) at 200 ppm (Diabrotica balteata) | mortality at 200 ppm (Thrips tabaci; [3]) | percent control (mortality, anti-feedant effect or growth inhibition) at 200 ppm (Spodoptera littoralis; [4])
